Source: patent US7521444B2, “Compounds for the treatment of hepatitis C” (Bristol-Myers Squibb Company, priority 2007, dated 2009)

Experiments:
HCV NS5B = target: T1, HCV NS5B (Hepatitis C virus genotype 1b, UniProt Q9WMX2); assay: HCV NS5B RdRp enzyme assay (standard or modified); type: biochemical; conditions: HCV NS5B RdRp genotype 1b enzyme; standard or modified assay not stated
T1 construct: The protein was expressed with an 18 amino acid C-terminal truncation to enhance the solubility; made in house; host or cells: E. coli BL21(DE3), pET21a
Experimental: HCV NS5B RdRp cloning, expression, and purification. The cDNA encoding the NS5B protein of HCV, genotype 1b, was cloned into the pET21a expression vector. The protein was expressed with an 18 amino acid C-terminal truncation to enhance the solubility. The E. coli competent cell line BL21(DE3) was used for expression of the protein. Cultures were grown at 37° C. for ˜4 hours until the cultures reached an optical density of 2.0 at 600 nm. The cultures were cooled to 20° C. and induced with 1 mM IPTG. Fresh ampicillin was added to a final concentration of 50 μg/ml and the cells were grown overnight at 20° C.
Cell pellets (3 L) were lysed for purification to yield 15-24 mgs of purified NS5B. The lysis buffer consisted of 20 mM Tris-HCl, pH 7.4, 500 mM NaCl, 0.5% triton X-100, 1 mM DTT, 1 mM EDTA, 20% glycerol, 0.5 mg/ml lysozyme, 10 mM MgCl2, 15 ug/ml deoxyribonuclease I, and Complete TM protease inhibitor tablets (Roche). After addition of the lysis buffer, frozen cell pellets were resuspended using a tissue homogenizer. To reduce the viscosity of the sample, aliquots of the lysate were sonicated on ice using a microtip attached to a Branson sonicator. The sonicated lysate was centrifuged at 100,000×g for 1 hr at 4° C. and filtered through a 0.2 μm filter unit (Corning).
The protein was purified using two sequential chromatography steps: Heparin sepharose CL-6B and polyU sepharose 4B (Pharmacia). The chromatography buffers were identical to the lysis buffer but contained no lysozyme, deoxyribonuclease I, MgCl2 or protease inhibitor and the NaCl concentration of the buffer was adjusted according to the requirements for charging the protein onto the column. Each column was eluted with a NaCl gradient which varied in length from 5-50 column volumes depending on the column type. After the final chromatography step, the resulting purity of the enzyme is >90% based on SDS-PAGE analysis. The enzyme was aliquoted and stored at −80° C.
Standard HCV NS5B RdRp enzyme assay. HCV RdRp genotype 1b assays were run in a final volume of 60 μl in 96 well plates (Corning 3600). The assay buffer is composed of 20 mM Hepes, pH 7.5, 2.5 mM KCl, 2.5 mM MgCl2, 1 mM DTT, 1.6 U RNAse inhibitor (Promega N2515), 0.01 mg/ml BSA (Sigma B6917), and 2% glycerol. All compounds were serially diluted (3-fold) in DMSO and diluted further in water such that the final concentration of DMSO in the assay was 2%. HCV RdRp genotype 1b enzyme was used at a final concentration of 28 nM. A polyA template was used at 6 nM, and a biotinylated oligo-dT12 primer was used at 180 nM final concentration. Template was obtained commercially (Amersham 27-4110). Biotinylated primer was prepared by Sigma Genosys. 3H-UTP was used at 0.6 μCi (0.29 μM total UTP). Reactions were initiated by the addition of enzyme, incubated at 30° C. for 60 min, and stopped by adding 25 μl of 50 mM EDTA containing SPA beads (4 μg/μl, Amersham RPNQ 0007). Plates were read on a Packard Top Count NXT after >1 hr incubation at room temperature.
Modified HCV NS5B RdRp enzyme assay. A modified enzyme assay was performed essentially as described for the standard enzyme assay except for the following: The biotinylated oligo dT12 primer was precaptured on streptavidin-coated SPA beads by mixing primer and beads in assay buffer and incubating at room temperature for one hour. Unbound primer was removed after centrifugation. The primer-bound beads were resuspended in 20 mM Hepes buffer, pH 7.5 and used in the assay at final concentrations of 20 nM primer and 0.67 μg/μl beads. Order of addition in the assay: enzyme (1.75 nM) was added to diluted compound followed by the addition of a mixture of template (0.36 nM), 3H-UTP (0.6 μCi, 0.29 μM), and primer-bound beads, to initiate the reaction; concentrations given are final. Reactions were allowed to proceed for 4 hours at 30° C.
IC50 values for compounds were determined using seven different [I]. […]

HCV replicon cells = assay: HCV replicon FRET / luciferase assay; type: cell-based; conditions: 50% reduction in FRET or luciferase activity
Experimental: FRET Assay Preparation. The HCV FRET screening assay was performed in 96-well cell culture plates. The FRET peptide (Anaspec, Inc.) (Taliani et al., Anal. Biochem. 1996, 240, 60-67) contains a fluorescence donor, EDANS, near one end of the peptide and an acceptor, DABCYL, near the other end. The fluorescence of the peptide is quenched by […] resonance energy transfer (RET) between the donor and the acceptor, but as the NS3 protease cleaves the peptide the products are released from RET quenching and the fluorescence of the donor becomes apparent. The assay reagent was made as follows: 5× cell Luciferase cell culture lysis reagent from Promega (#E153A) diluted to 1× with dH2O, NaCl added to 150 mM final, the FRET peptide diluted to 20 μM final from a 2 mM stock.
To prepare plates, HCV replicon cells, with or without a Renilla luciferase reporter gene, were trypsinized and plated in a 96-well plate with titrated test compounds added in columns 3 through 12; columns 1 and 2 contained a control compound (HCV control inhibitor), and the bottom row contained cells with DMSO only. The plates were then placed in a CO2 incubator at 37° C.
Assays. Subsequent to addition of the test compounds described above (FRET Assay Preparation), at various times the plate was removed and Alamar blue solution (Trek Diagnostics, #00-100) was added to measure cellular toxicity. After reading in a Cytoflour 4000 instrument (PE Biosystems), plates were rinsed with PBS and then used for FRET assay by the addition of 30 ul of the FRET peptide assay reagent described above (FRET Assay Preparation) per well. The plate was then placed into the Cytoflour 4000 instrument which had been set to 340 excite/490 emission, automatic mode for up to 20 cycles and the plate read in a kinetic mode. Typically, the signal to noise using an endpoint analysis after the reads was at least three-fold. Alternatively, after Alamar blue reading, plates were rinsed with PBS, then used for luciferase assay using the Promega Dual-Glo Luciferase Assay System or the Promega EnduRen Live Cell Substrate assay.
Compound analysis was performed by quantification of the relative HCV replicon inhibition and the relative cytotoxicity values. To calculate cytoxicity values, the average Alamar Blue fluorescence signals from the control wells were set as 100% non-toxic. The individual signals in each of the compound test wells were then divided by the average control signal and multiplied by 100% to determine […]. To calculate the HCV replicon inhibition values, an average background value was obtained from the two wells containing the highest amount of HCV control inhibitor at the end of the assay period. These numbers were similar to those obtained from naïve Huh-7 cells. The background numbers were then subtracted from the average signal obtained from the control wells and this number was used as 100% activity. The individual signals in each of the compound test wells were then divided by the averaged control values after background subtraction and multiplied by 100% to determine percent activity. EC50 values were calculated as the concentration which caused a 50% reduction in FRET or luciferase activity. The two numbers generated for the compound plate, percent cytoxicity and percent activity, were used to determine compounds of interest for further analysis.

T1 sequence (Q9WMX2 2420-2992): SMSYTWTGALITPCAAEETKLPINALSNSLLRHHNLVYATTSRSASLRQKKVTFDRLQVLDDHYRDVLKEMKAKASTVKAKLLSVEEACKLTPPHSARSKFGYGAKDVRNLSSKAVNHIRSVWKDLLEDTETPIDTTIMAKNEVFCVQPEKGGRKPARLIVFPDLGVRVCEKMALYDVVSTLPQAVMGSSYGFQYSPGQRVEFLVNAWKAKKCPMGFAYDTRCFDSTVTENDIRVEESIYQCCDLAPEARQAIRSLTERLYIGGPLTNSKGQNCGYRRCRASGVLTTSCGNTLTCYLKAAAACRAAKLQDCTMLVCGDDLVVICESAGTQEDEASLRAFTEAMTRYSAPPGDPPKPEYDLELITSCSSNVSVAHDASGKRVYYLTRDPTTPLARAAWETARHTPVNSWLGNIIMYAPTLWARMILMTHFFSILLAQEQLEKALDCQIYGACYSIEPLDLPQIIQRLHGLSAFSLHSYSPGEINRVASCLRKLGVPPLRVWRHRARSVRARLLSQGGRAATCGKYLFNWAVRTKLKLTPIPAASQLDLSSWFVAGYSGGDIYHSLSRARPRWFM

| Structure (SMILES) | IC50 (HCV NS5B) | EC50 (HCV replicon cells; Hepatitis C virus) | EC50 (HCV replicon cells) |
| --- | --- | --- | --- |
| COc1ccc2c(c1)C1CC1(C(=O)N1C[C@H]3CN(Cc4ccccc4)C[C@H]3C1)Cn1c-2c(C2CCCCC2)c2ccc(C(=O)NS(=O)(=O)N(C)C)cc21 (some centres unmarked) | 4.58 to 500 nM | 4.58 to 500 nM | – |
| COc1ccc2c(c1)C1CC1(C(=O)N1CC3CCCN(C(C)=O)C3C1)Cn1c-2c(C2CCCCC2)c2ccc(C(=O)NS(=O)(=O)C3CC3)cc21 (centres unmarked) [drawing 67] | 4.58 to 500 nM | 4.58 to 500 nM | – |
| COc1ccc2c(c1)C1CC1(C(=O)N1CC3CN(C)CC3C1)Cn1c-2c(C2CCCCC2)c2ccc(C(=O)NS(=O)(=O)N(C)C)cc21 (centres unmarked) | 4.58 to 500 nM | 4.58 to 500 nM | – |
| COc1ccc2c(c1)C1CC1(C(=O)N1CCN3CCCCC3C1)Cn1c-2c(C2CCCCC2)c2ccc(C(=O)NS(C)(=O)=O)cc21 (centres unmarked) | 4.58 to 500 nM | 4.58 to 500 nM | – |
| COc1ccc2c(c1)C1CC1(C(=O)N1CCN3CCC[C@@H]3C1)Cn1c-2c(C2CCCCC2)c2ccc(C(=O)NS(C)(=O)=O)cc21 (some centres unmarked) | 4.58 to 500 nM | 4.58 to 500 nM | – |
| COc1ccc2c(c1)[C@@H]1C[C@]1(C(=O)N1CC3CCCN(C(C)=O)C3C1)Cn1c-2c(C2CCCCC2)c2ccc(C(=O)NS(=O)(=O)N(C)C)cc21 (some centres unmarked) [drawing 72] | 4.58 to 500 nM | 4.58 to 500 nM | – |
| COc1ccc2c(c1)C1CC1(C(=O)N1CC3CCCN(C)C3C1)Cn1c-2c(C2CCCCC2)c2ccc(C(=O)NS(=O)(=O)C3CC3)cc21 (centres unmarked) | 4.58 to 500 nM | 4.58 to 500 nM | – |
| COc1ccc2c(c1)C1CC1(C(=O)N1CCC[C@H]3CN(C(C)=O)C[C@H]31)Cn1c-2c(C2CCCCC2)c2ccc(C(=O)NS(=O)(=O)N(C)C)cc21 (some centres unmarked) | 4.58 to 500 nM | 4.58 to 500 nM | – |
| COc1ccc2c(c1)C1CC1(C(=O)N1CC3CN(C(=O)N(C)C)CC3C1)Cn1c-2c(C2CCCCC2)c2ccc(C(=O)NS(N)(=O)=O)cc21 (centres unmarked) | 4.58 to 500 nM | – | – |
| COc1ccc2c(c1)C1CC1(C(=O)N1CC3CCCN(C)C3C1)Cn1c-2c(C2CCCCC2)c2ccc(C(=O)NS(=O)(=O)N(C)C)cc21 (centres unmarked) | 4.58 to 500 nM | 4.58 to 500 nM | – |
| COc1ccc2c(c1)[C@@H]1C[C@]1(C(=O)N1CCN3CCC[C@@H]3C1)Cn1c-2c(C2CCCCC2)c2ccc(C(=O)NS(=O)(=O)N(C)C)cc21 | 4.58 to 500 nM | 4.58 to 500 nM | – |
| COc1ccc2c(c1)[C@@H]1C[C@]1(C(=O)N1CC3CCCN(C(C)=O)C3C1)Cn1c-2c(C2CCCCC2)c2ccc(C(=O)NS(=O)(=O)N(C)C)cc21 (some centres unmarked) [drawing 73] | 4.58 to 500 nM | – | 4.58 to 500 nM |
| COc1ccc2c(c1)C1CC1(C(=O)N1CC3CN(C(=O)OC(C)(C)C)CC3C1)Cn1c-2c(C2CCCCC2)c2ccc(C(=O)NS(=O)(=O)C3CC3)cc21 (centres unmarked) | 4.58 to 500 nM | – | – |
| COc1ccc2c(c1)C1CC1(C(=O)N1CC3CCCN(C(=O)OC(C)(C)C)C3C1)Cn1c-2c(C2CCCCC2)c2ccc(C(=O)NS(=O)(=O)C3CC3)cc21 (centres unmarked) | 4.58 to 500 nM | 4.58 to 500 nM | – |
